Laboratory results published in patent US20110117081A1, “FUNCTIONALIZED PYRROLIDINES AND USE THEREOF AS IAP INHIBITORS” (priority 2008, published 2011).

Tests used:
[1] = tested on: Ovarian adenocarcinoma SKOV3 cells; experiment: SKOV3 cell viability assay (MTT); format: cell-based; conditions: Homo sapiens, SK-OV-3, 72 hours
Procedure: Ovarian adenocarcinoma SKOV3 cells (ATCC# HTB-77) were cultured as monolayers in McCoy's 5a medium (HyClone) supplemented with 2.2 g/L sodium bicarbonate (Gibco), 10% FBS (HyClone) and 1% penicillin/streptomycin (HyClone). Cells were seeded in tissue culture-treated 96 well plates at 5000 cells/well in 150 ul of media. After 24 hours, triplicate wells of cells were treated with various concentrations of compound (0.01 to 10000 nM) diluted in 50 ul of culture media. Cells were incubated at 37° C. (5% CO2) in the presence of compound for 72 hours. Metabolic viability of remaining cells was assessed by MTT (thiazolyl blue tetrazolium bromide, Sigma) assay. 20 ul of MTT reagent (10 mg/ml) was added per well and plates were incubated for 4 hours at 37° C. (5% CO2). The supernatant was then removed from the plate. The converted MTT product was solubilized with 100 uL of isopropanol and the absorbance was read at 570 nm using a Tecan spectrophotometer.
(§1) The percentage viability of compound-treated cells was expressed as a fraction of the absorbance/luminescence signal obtained from non-treated cells. EC50 values (corresponding to 50% cell survival in the presence of compound as compared to untreated controls) were calculated from MTT survival curves (HCT116 and SKOV3) using BioAssay software (CambridgeSoft) and from Cell Titer-Glo survival curves (synovioycte and Jurkat cells) using GraphPad Prism (Graph Pad Software Inc.). In the below chart, EC50 values are summarized as follows: a=EC50 of less than 10 nM; b=EC50 of 10-100 nM; and c=EC50 of greater than 100 nM.

[2] = tested on: Colorectal carcinoma HCT116 cells; experiment: HCT116 + ETR1 cell viability assay (MTT); format: cell-based; conditions: with ETR1 (40 ng/ml), 72 hrs
Procedure: Colorectal carcinoma HCT116 cells (ATCC# CCL-247) were cultured as monolayers in 96 well plates at a density of 2000 cells per well in 100 ul of McCoy's 5a medium (HyClone) supplemented with 2.2 g/L sodium bicarbonate (Gibco), 10% FBS (HyClone) and 1% penecillin/streptomycin (HyClone) for 24 hours. Triplicate wells of cells were treated for 72 hrs at 37° C. (5% CO2) with 50 ul of HGS agonistic Trail receptor antibody, ETR1 (40 ng/ml) in combination with 50 ul of diluted compound (0.01 to 10000 nM). Metabolic viability of remaining cells was assessed by MTT assay.
as §1

[3] = tested on: Rheumatoid arthritis human fibroblast-like synoviocytes (HFLS-RA); experiment: Human synoviocytes + Fas antibody cell viability assay (Cell Titer-Glo); format: cell-based; conditions: with anti-human CD95 (Fas) antibody (300 ng/ml), 72 hrs, read-out: EC50 synoviocyctes + FAS
Procedure: Rheumatoid arthritis human fibroblast-like synoviocytes (HFLS-RA, Cell Applications Inc.) were seeded in 96-well plates at 3000 cells per well in 100 ul of complete synoviocyte growth medium (Cell Applications Inc.) one day prior to treatment. Triplicate wells of cells were treated by the addition of 50 ul of diluted compound (0.01 to 100 nM) in combination with 50 ul of anti-human CD95 (Fas) antibody (300 ng/ml; clone CH-11, Beckman Coulter/Immunotech) and incubated at 37° C. (5% CO2) for 72 hrs. Cell viability was measured by Cell Titer-Glo Luminescent Assay (Promega). Briefly, 100 ul of media was removed from wells and an equal volume of Cell Titer-Glo Reagent was added to the cells. The plates were mixed for 2 minutes on an orbital shaker and after a 10-minute incubation period at room temperature, the emitted luminescence was detected using a Tecan Infinite F200 spectrophotometer.
as §1

[4] = tested on: H460 xenograft; experiment: Tumor suppressive effect in combination with Taxotere, H460 xenograft model; format: in vivo; conditions: 1 mg/kg IV, 5 on/2off; with Taxotere 30 mg/kg IP; after 3 weeks of treatment; CD-1 nude mice
Procedure: Tumor Suppressive Effect of Compound in Combination with Taxotere using an H460 Xenograft Model
(§2) Female, CD-1, nude mice received 1×10^6 H460 cells (in 100 uL of serum-free media) subcutaneously at the right flank. When average tumor size reached ˜100 mm^3 groups were formed using a balanced design based on tumor size, and treatment commenced. Tumor bearing mice were treated with either vehicle (5% D5W; 5 mL/kg, IV) or compound (1 mg/kg, IV) using a 5 on/2off treatment schedule. Taxotere (30 mg/kg, IP) was given twice, one week apart commencing one day after IAP inhibitory compounds.

[5] = tested on: HCT-116 xenograft; experiment: Tumor suppressive effect in combination with ETR1, HCT-116 xenograft model; format: in vivo; conditions: 1 mg/kg IV, 5 on/2off; with Mapatumamab 10 mg/kg IP twice weekly; after 3 weeks of treatment; CD-1 nude mice
Procedure: Tumor Suppressive Effect of Compound in Combination with ETR1 using an HCT-116 Xenograft Model
as §2, with “1.5×10^6 HCT-116” for “1×10^6 H460”, “˜150” for “˜100”, “Mapatumamab (10” for “Taxotere (30”, “twice weekly for the duration of the experiment,” for “twice, one week apart”

Compound	EC50 [1] [nM]	EC50 [2] [nM]	EC50 [3] [nM]	tumor growth suppression relative to vehicle treated controls [4] [%]	tumor growth suppression relative to vehicle treated controls [5] [%]
CN[C@@H](C)C(=O)N[C@H](C(=O)N1C[C@@H](NC(=O)C2CCC(C(=O)N[C@H]3C[C@@H](C(=O)N[C@@H]4CCc5ccccc54)N(C(=O)[C@@H](NC(=O)[C@H](C)NC)C4CCCCC4)C3)CC2)C[C@H]1C(=O)N[C@@H]1CCc2ccccc21)C1CCCCC1 (stereo partly drawn) [Compound 3]	< 10	< 10	< 10	–	–
CC[C@H](NC)C(=O)N[C@H](C(=O)N1C[C@@H](NC(=O)c2ccc(C(=O)N[C@H]3C[C@@H](C(=O)N[C@@H]4CCCc5ccccc54)N(C(=O)[C@@H](NC(=O)[C@H](CC)NC)C4CCCCC4)C3)cc2)C[C@H]1C(=O)N[C@@H]1CCCc2ccccc21)C1CCCCC1 [Compound 51]	–	< 10	< 10	–	–
CN[C@@H](C)C(=O)N[C@H](C(=O)N1C[C@@H](NC(=O)C2CCC(C(=O)N[C@H]3C[C@@H](C(=O)NC(c4ccccc4)c4ccccc4)N(C(=O)[C@@H](NC(=O)[C@H](C)NC)C4CCCCC4)C3)CC2)C[C@H]1C(=O)NC(c1ccccc1)c1ccccc1)C1CCCCC1 (stereo partly drawn) [Compound 7]	< 10	< 10	< 10	–	–
CN[C@@H](C)C(=O)N[C@H](C(=O)N1C[C@@H](NC(=O)c2ccc(C(=O)N[C@H]3C[C@@H](C(=O)N4CC[C@@H](c5ccccc5)C4)N(C(=O)[C@@H](NC(=O)[C@H](C)NC)C4CCCCC4)C3)cc2)C[C@H]1C(=O)N1CC[C@@H](c2ccccc2)C1)C1CCCCC1 [Compound 41]	–	10 to 100	10 to 100	–	–
CN[C@@H](C)C(=O)N[C@H](C(=O)N1C[C@@H](NC(=O)c2ccc(C(=O)N[C@H]3C[C@@H](C(=O)N[C@@H]4CCCc5ccccc54)N(C(=O)[C@@H](NC(=O)[C@H](C)NC)C4CCCCC4)C3)cc2)C[C@H]1C(=O)N[C@@H]1CCCc2ccccc21)C1CCCCC1 [Compound 1]	< 10	< 10	< 10	54	59
CN[C@@H](C)C(=O)N[C@H](C(=O)N1C[C@@H](NC(=O)c2ccc(C(=O)N[C@H]3C[C@@H](C(=O)NC(c4ccccc4)c4ccccc4)N(C(=O)[C@@H](NC(=O)[C@H](C)NC)C4CCCCC4)C3)cc2)C[C@H]1C(=O)NC(c1ccccc1)c1ccccc1)C1CCCCC1 [Compound 5]	< 10	< 10	–	–	–
CN[C@@H](C)C(=O)N[C@H](C(=O)N1C[C@@H](NC(=O)c2ccc(-c3ccc(C(=O)N[C@H]4C[C@@H](C(=O)N[C@H](COCc5ccccc5)c5ccccc5)N(C(=O)[C@@H](NC(=O)[C@H](C)NC)C5CCCCC5)C4)cc3)cc2)C[C@H]1C(=O)N[C@H](COCc1ccccc1)c1ccccc1)C1CCCCC1 [Compound 27]	10 to 100	< 10	–	–	–
CN[C@@H](C)C(=O)N[C@H](C(=O)N1C[C@@H](NC(=O)c2ccc(C(=O)N[C@H]3C[C@@H](C(=O)N4CCC[C@@H]4c4ccccc4)N(C(=O)[C@@H](NC(=O)[C@H](C)NC)C4CCCCC4)C3)cc2)C[C@H]1C(=O)N1CCC[C@@H]1c1ccccc1)C1CCCCC1 [Compound 30]	> 100	> 100	–	–	–
